Assays:
[1] = test system: T-Rex 293 cell line SC cells having increased expression of progesterone receptor isoform B protein due to exposure to doxycycline; assay: Cellular growth inhibition, T-Rex 293 SC cells with doxycycline (progesterone receptor isoform B induced), Example 47; assay type: cell-based; settings: progesterone receptor isoform B induced with 10 ng/mL doxycycline, 72 hours, CellTiter-Glo 2.0, Table 14 (Example 47)
Procedure: The following types of cells were prepared for this experiment: (i) a T-Rex 293 cell line having increased expression of progesterone receptor isoform B protein due to exposure to doxycycline and (ii) a T-Rex 293 cell line lacking increased expression of progesterone receptor isoform B protein. Ability of the test compounds to inhibit proliferation of the foregoing cell types was evaluated according to the procedures set forth below.
The doxycycline-inducible progesterone receptor isoform B protein expressing cell line was established using the following protocol: T-Rex 293 cells were purchased from Invitrogen (Cat #R71007) and transfected using Lipofectamine 2000 with the wild-type progesterone receptor B protein sequence cloned into the pcDNA4/TO vector. Transfected cells were selected using 400 μg/mL Zeocin (Invitrogen Cat #R25001). Following selection, single clones were raised and maintained in Dulbecco's Modified Eagle Medium (DMEM) supplemented with 10% w/w Tetracycline-free fetal bovine serum (FBS) and 250 μg/mL Zeocin. Clones were analyzed for expression of progesterone receptor isoform B protein in the presence and absence of 10 ng/mL doxycycline (Sigma Cat #D9891), and a single doxycycline-inducible clone (hereinafter “SC”) was selected for use in downstream assays.
The SC cells were seeded on poly-D-lysine coated, black clear-bottom 384-well plates at 2500/well, in 25 μL Phenol Red Free Dulbecco's Modified Eagle Medium (DMEM) supplemented with 10% w/w charcoal-dextran treated fetal bovine serum (FBS) and 1% w/w pen-strep, with or without 10 ng/mL doxycycline. Pen-Strep is a commercially available mixture of penicillin G and streptomycin, which is used in mammalian cell culture media to prevent bacterial contamination. Phenol Red Free Dulbecco's Modified Eagle Medium (DMEM) supplemented with 10% w/w charcoal-dextran treated fetal bovine serum (FBS) and 1% w/w pen-strep, with or without 10 ng/mL doxycycline is herein referred to as Treatment Medium. Following seeding of cells in the plates, the plates were spun at 300×g for 30 seconds, then equilibrated to room temperature for 30 minutes, and then deposited in a humidified tissue culture incubator maintained at 37° C. with 5% CO2.
At 24 hours after seeding of the cells, dilutions of test compound were prepared in DMSO and dissolved in Treatment Medium, to achieve a final DMSO concentration of 0.5% w/w, thereby providing the Test Compound Solution. A 25 μL aliquot of the Test Compound Solution was added to cells in the well plates. An equal volume of a solution containing DMSO and Treatment Medium was used as a negative control. Following treatment of cells with Test Compound Solution or said equal volume of a solution containing DMSO and Treatment Medium, the plates were spun at 300×g for 30 seconds, and then left in an incubator for 72 hours.
At the end of the treatment duration, cell viability was quantified with CellTiter-Glo 2.0 reagent (Promega Cat #G9243). For this purpose, plates were equilibrated to room temperature for 30 minutes, and then 25 μL of CellTiter-Glo 2.0 reagent was added to cells in the plate wells. Plates were then agitated on a shaker for two minutes at 500 rpm and subsequently incubated at room temperature for 10 minutes. Following incubation, the plates were spun at 3000×g for 30 seconds, then sealed with an optical adhesive cover, and luminescence readings were measured with an EnVision Plate Reader (Perkin Elmer).
Data was normalized using zero luminescence for baseline. A four-parameter non-linear regression curve fit was applied to dose-response data in GraphPad Prism data analysis software to determine the half-maximal growth inhibitory concentration (GI50) for each test compound.

[2] = target: T1, progesterone receptor (Homo sapiens, UniProt P06401); assay: PR Human Progesterone NHR Binding (Agonist Radioligand) Assay, T47D cytosol; settings: T47D cytosolic fractions, 0.5 nM [3H]progesterone, 1 hour at 4° C., Table 16
T1 construct: host or cells: T47D cells (cytosolic fraction)
T1 sequence (P06401 1-933): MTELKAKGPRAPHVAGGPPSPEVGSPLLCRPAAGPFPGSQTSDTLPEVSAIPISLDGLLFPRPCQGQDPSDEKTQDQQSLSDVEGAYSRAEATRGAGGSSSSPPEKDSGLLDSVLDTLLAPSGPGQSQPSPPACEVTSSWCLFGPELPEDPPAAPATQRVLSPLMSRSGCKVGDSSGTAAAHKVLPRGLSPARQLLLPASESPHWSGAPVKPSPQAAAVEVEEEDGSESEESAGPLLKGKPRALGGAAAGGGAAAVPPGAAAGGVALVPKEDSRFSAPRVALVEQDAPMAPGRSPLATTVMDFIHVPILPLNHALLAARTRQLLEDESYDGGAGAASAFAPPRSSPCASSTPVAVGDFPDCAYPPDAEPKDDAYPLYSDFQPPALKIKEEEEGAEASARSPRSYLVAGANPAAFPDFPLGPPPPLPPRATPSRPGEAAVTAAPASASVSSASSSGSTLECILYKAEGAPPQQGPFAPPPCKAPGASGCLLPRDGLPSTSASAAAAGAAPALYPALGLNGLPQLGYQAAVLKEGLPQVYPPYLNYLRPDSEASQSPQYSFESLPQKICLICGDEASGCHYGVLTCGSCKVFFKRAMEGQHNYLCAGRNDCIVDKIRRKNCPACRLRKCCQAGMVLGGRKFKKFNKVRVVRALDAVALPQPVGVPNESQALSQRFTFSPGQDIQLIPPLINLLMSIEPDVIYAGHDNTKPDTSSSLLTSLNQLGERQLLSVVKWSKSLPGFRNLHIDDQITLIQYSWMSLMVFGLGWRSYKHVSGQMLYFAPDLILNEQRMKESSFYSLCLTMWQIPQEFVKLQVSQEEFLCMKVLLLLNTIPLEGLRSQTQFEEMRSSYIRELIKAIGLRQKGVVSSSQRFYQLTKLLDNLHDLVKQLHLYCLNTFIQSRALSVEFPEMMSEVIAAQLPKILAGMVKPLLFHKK
Procedure: Compounds were tested using the PR Human Progesterone NHR Binding (Agonist Radioligand) Assay, Cerep at Eurofins Discovery using a modified version of the protocol from Sarup et al. (Cancer Res 1988; 48:5071-5078). Briefly, cytosolic fractions of T47D cells were incubated with 0.5 nM [^3H]progesterone for 1 hour at 4° C. in the absence or presence of the test compound. Nonspecific binding was determined in the presence of 1 μM promegestone. Reactions were subjected to scintillation counting. Results are expressed as a percent inhibition of the control radioligand specific binding.

| Ki [2] | Compound | GI50 [1] |
| --- | --- | --- |
|  | Cc1sc2c(c1C)C(c1ccc(Cl)cc1)=N[C@@H](CC(=O)NCCCCCOC1CCN(c3ncc(C(=O)N[C@H]4C(C)(C)[C@H](Oc5ccc(C#N)c(Cl)c5)C4(C)C)cn3)CC1)c1nnc(C)n1-2 [Compound I-22, N-((1r,3r)-3-(3-chloro-4-cyanophenoxy)-2,2,4,4-tetramethylcyclobutyl)-2-(4-((5-(2-((S)-4-(4-chlorophenyl)-2,3,9-trimethyl-6H-thieno[3,2-A][1,2,4]triazolo[4,3-a][1,4]diazepin-6-yl)acetamido)pentyl)oxy)piperidin-1-yl)pyrimidine-5-carboxamide] | > 3000 nM |
| < 50 nM | CCNC(=O)C[C@@H]1N=C(c2ccc(OCC3CN(c4ncc(C(=O)N[C@H]5C(C)(C)[C@H](Oc6ccc(C#N)c(Cl)c6)C5(C)C)cn4)C3)cc2)c2c(sc(C)c2C)-n2c(C)nnc21 [Compound I-71] |  |
| < 50 nM | CCNC(=O)C[C@@H]1N=C(c2ccc(N3CCC(OC4CCN(c5ncc(C(=O)N[C@H]6C(C)(C)[C@H](Oc7ccc(C#N)c(Cl)c7)C6(C)C)cn5)CC4)CC3)cc2)c2c(sc(C)c2C)-n2c(C)nnc21 [Compound I-114] |  |
| < 50 nM | Cc1sc2c(c1C)C(c1ccc(OCCOC3CCN(c4ncc(C(=O)N[C@H]5C(C)(C)[C@H](Oc6ccc(C#N)c(Cl)c6)C5(C)C)cn4)CC3)cc1)=N[C@@H](CC(=O)OC(C)(C)C)c1nnc(C)n1-2 [Compound I-235, tert-butyl 2-((S)-4-(4-(2-((1-(5-(((1r,3r)-3-(3-chloro-4-cyanophenoxy)-2,2,4,4-tetramethylcyclobutyl)carbamoyl)pyrimidin-2-yl)piperidin-4-yl)oxy)ethoxy)phenyl)-2,3,9-trimethyl-6H-thieno[3,2-f][1,2,4]triazolo[4,3-a][1,4]diazepin-6-yl)acetate] |  |
| < 50 nM | Cc1sc2c(c1C)C(c1ccc(N3CC(CC4CCN(c5ncc(C(=O)N[C@H]6C(C)(C)[C@H](Oc7ccc(C#N)c(Cl)c7)C6(C)C)cn5)CC4)C3)cc1)=N[C@@H](C)c1nnc(C)n1-2 [Compound I-270] |  |
| < 50 nM | Cc1sc2c(c1C)C(c1ccc(N3CC(C4CCN(c5ncc(C(=O)N[C@H]6C(C)(C)[C@H](Oc7ccc(C#N)c(Cl)c7)C6(C)C)cn5)CC4)C3)cc1)=N[C@@H](C)c1nnc(C)n1-2 [Compound I-271] |  |
| < 50 nM | Cc1sc2c(c1C)C(c1ccc(OC3CC4(C3)CC3(CCN(c5ncc(C(=O)N[C@H]6C(C)(C)[C@H](Oc7ccc(C#N)c(Cl)c7)C6(C)C)cn5)CC3)C4)cc1)=N[C@@H](Cc1ncco1)c1nnc(C)n1-2 [Compound I-283] |  |
| < 50 nM | Cc1sc2c(c1C)C(c1ccc(CC3CC4(CCN(c5ncc(C(=O)N[C@H]6C(C)(C)[C@H](Oc7ccc(C#N)c(Cl)c7)C6(C)C)cn5)CC4)C3)cc1)=N[C@@H](C)c1nnc(C)n1-2 [Compound I-303] |  |
| 50 to 500 nM | Cc1sc2c(c1C)C(c1ccc(CC3CC4(CCN(c5ncc(C(=O)N[C@H]6C(C)(C)[C@H](Oc7ccc(C#N)c(Cl)c7)C6(C)C)cn5)CC4)C3)cc1)=N[C@@H](C)c1nnc(C)n1-2 [Compound I-436] |  |

— patent publication US20260062422A1 (Halda Therapeutics OpCo, Inc., priority 2022, published 2026)
